The source of these data is the NIST ThermoML archive (doi:10.1016/j.jct.2017.09.006).

For data set [1] the following is noted: Crystal; DTA.
Data set [2] is described as follows: Molar enthalpy of transition or fusion. Particulars: Crystal; DSC.

± gives the expanded uncertainty stated by the source.

As to `Cc1ccc2ccc(C)cc2c1` [2,7-dimethylnaphthalene], the Normal melting temperature in data set [1] is 95.0 ± 0.5 °C. In data set [2], the “Molar enthalpy of transition or fusion” value was determined as 6.05 ± 0.263 kcal/mol.

`COC(=O)c1cccc(C(=O)OC)c1` [dimethyl 1,3-benzenedicarboxylate]: in data set [1], the Normal melting temperature came to 67.2 ± 0.5 °C. Moreover, the “Molar enthalpy of transition or fusion” value in data set [2] came to 6.67 ± 0.167 kcal/mol.
